Source: the NIST ThermoML archive (doi:10.1016/j.tca.2017.12.013)

Experiment: molar heat capacity at constant pressure
Details: 101.33 kPa, DSC

[Ag+].[Ag+].[S-2] [silver sulfide]
Details | molar heat capacity at constant pressure [J/K/mol]
617.82 K, Crystal 2 | 86.15
618.82 K, Crystal 2 | 86.13
619.82 K, Crystal 2 | 86.1
620.82 K, Crystal 2 | 86.08
621.82 K, Crystal 2 | 86.05
622.82 K, Crystal 2 | 86.03
623.82 K, Crystal 2 | 86.01
624.82 K, Crystal 2 | 85.99
625.82 K, Crystal 2 | 85.96
626.82 K, Crystal 2 | 85.94
627.82 K, Crystal 2 | 85.92
628.82 K, Crystal 2 | 85.9
629.82 K, Crystal 2 | 85.88
630.82 K, Crystal 2 | 85.86
631.82 K, Crystal 2 | 85.84
632.82 K, Crystal 2 | 85.82
633.82 K, Crystal 2 | 85.8
634.82 K, Crystal 2 | 85.78
635.82 K, Crystal 2 | 85.76
636.82 K, Crystal 2 | 85.74
637.82 K, Crystal 2 | 85.73
638.82 K, Crystal 2 | 85.71
639.82 K, Crystal 2 | 85.7
640.82 K, Crystal 2 | 85.7
641.82 K, Crystal 2 | 85.69
642.82 K, Crystal 2 | 85.67
643.82 K, Crystal 2 | 85.66
644.82 K, Crystal 2 | 85.65
645.82 K, Crystal 2 | 85.64
646.82 K, Crystal 2 | 85.62
647.82 K, Crystal 2 | 85.62
648.82 K, Crystal 2 | 85.61
649.82 K, Crystal 2 | 85.6
650.82 K, Crystal 2 | 85.59
651.82 K, Crystal 2 | 85.57
652.82 K, Crystal 2 | 85.57
653.82 K, Crystal 2 | 85.57
654.82 K, Crystal 2 | 85.57
655.82 K, Crystal 2 | 85.56
656.82 K, Crystal 2 | 85.56
657.82 K, Crystal 2 | 85.56
658.82 K, Crystal 2 | 85.56
659.82 K, Crystal 2 | 85.57
660.82 K, Crystal 2 | 85.56
661.82 K, Crystal 2 | 85.56
662.82 K, Crystal 2 | 85.57
663.82 K, Crystal 2 | 85.57
664.82 K, Crystal 2 | 85.57
665.82 K, Crystal 2 | 85.57
666.82 K, Crystal 2 | 85.57
667.82 K, Crystal 2 | 85.57
668.82 K, Crystal 2 | 85.57
669.82 K, Crystal 2 | 85.58
670.82 K, Crystal 2 | 85.59
671.82 K, Crystal 2 | 85.6
672.82 K, Crystal 2 | 85.61
673.82 K, Crystal 2 | 85.62
674.82 K, Crystal 2 | 85.63
675.82 K, Crystal 2 | 85.64
676.82 K, Crystal 2 | 85.66
677.82 K, Crystal 2 | 85.67
678.82 K, Crystal 2 | 85.69
679.82 K, Crystal 2 | 85.7
680.82 K, Crystal 2 | 85.72
681.82 K, Crystal 2 | 85.74
682.82 K, Crystal 2 | 85.75
683.82 K, Crystal 2 | 85.77
684.82 K, Crystal 2 | 85.79
685.82 K, Crystal 2 | 85.81
686.82 K, Crystal 2 | 85.83
687.82 K, Crystal 2 | 85.85
688.82 K, Crystal 2 | 85.87
689.82 K, Crystal 2 | 85.89
690.82 K, Crystal 2 | 85.92
691.82 K, Crystal 2 | 85.94
692.82 K, Crystal 2 | 85.96
693.82 K, Crystal 2 | 85.99
694.82 K, Crystal 2 | 86.01
695.82 K, Crystal 2 | 86.04
696.82 K, Crystal 2 | 86.06
697.82 K, Crystal 2 | 86.09
698.82 K, Crystal 2 | 86.12
699.82 K, Crystal 2 | 86.14
700.82 K, Crystal 2 | 86.04
701.82 K, Crystal 2 | 86.05
702.82 K, Crystal 2 | 86.06
703.82 K, Crystal 2 | 86.07
704.82 K, Crystal 2 | 86.08
705.82 K, Crystal 2 | 86.09
706.82 K, Crystal 2 | 86.1
707.82 K, Crystal 2 | 86.11
708.82 K, Crystal 2 | 86.12
709.82 K, Crystal 2 | 86.13
710.82 K, Crystal 2 | 86.14
711.82 K, Crystal 2 | 86.15
712.82 K, Crystal 2 | 86.16
713.82 K, Crystal 2 | 86.17
714.82 K, Crystal 2 | 86.18
715.82 K, Crystal 2 | 86.19
716.82 K, Crystal 2 | 86.2
717.82 K, Crystal 2 | 86.21
718.82 K, Crystal 2 | 86.22
719.82 K, Crystal 2 | 86.23
720.82 K, Crystal 2 | 86.24
721.82 K, Crystal 2 | 86.25
722.82 K, Crystal 2 | 86.26
723.82 K, Crystal 2 | 86.26
724.82 K, Crystal 2 | 86.27
725.82 K, Crystal 2 | 86.28
726.82 K, Crystal 2 | 86.29
727.82 K, Crystal 2 | 86.3
728.82 K, Crystal 2 | 86.3
729.82 K, Crystal 2 | 86.31
730.82 K, Crystal 2 | 86.32
731.82 K, Crystal 2 | 86.32
732.82 K, Crystal 2 | 86.33
733.82 K, Crystal 2 | 86.33
734.82 K, Crystal 2 | 86.34
735.82 K, Crystal 2 | 86.34
736.82 K, Crystal 2 | 86.35
737.82 K, Crystal 2 | 86.35
738.82 K, Crystal 2 | 86.35
739.82 K, Crystal 2 | 86.35
740.82 K, Crystal 2 | 86.36
741.82 K, Crystal 2 | 86.36
742.82 K, Crystal 2 | 86.36
743.82 K, Crystal 2 | 86.36
744.82 K, Crystal 2 | 86.36
745.82 K, Crystal 2 | 86.36
746.82 K, Crystal 2 | 86.35
747.82 K, Crystal 2 | 86.35
748.82 K, Crystal 2 | 86.35
749.82 K, Crystal 2 | 86.35
750.82 K, Crystal 2 | 86.34
751.82 K, Crystal 2 | 86.34
752.82 K, Crystal 2 | 86.33
753.82 K, Crystal 2 | 86.33
754.82 K, Crystal 2 | 86.32
755.82 K, Crystal 2 | 86.31
756.82 K, Crystal 2 | 86.31
757.82 K, Crystal 2 | 86.3
758.82 K, Crystal 2 | 86.29
759.82 K, Crystal 2 | 86.28
760.82 K, Crystal 2 | 86.27
761.82 K, Crystal 2 | 86.27
762.82 K, Crystal 2 | 86.26
763.82 K, Crystal 2 | 86.25
764.82 K, Crystal 2 | 86.24
765.82 K, Crystal 2 | 86.23
766.82 K, Crystal 2 | 86.21
767.82 K, Crystal 2 | 86.2
768.82 K, Crystal 2 | 86.19
769.82 K, Crystal 2 | 86.18
770.82 K, Crystal 2 | 86.17
771.82 K, Crystal 2 | 86.16
772.82 K, Crystal 2 | 86.14
773.82 K, Crystal 2 | 86.13
774.82 K, Crystal 2 | 86.12
775.82 K, Crystal 2 | 86.11
776.82 K, Crystal 2 | 86.1
777.82 K, Crystal 2 | 86.08
778.82 K, Crystal 2 | 86.07
779.82 K, Crystal 2 | 86.06
780.82 K, Crystal 2 | 86.05
781.82 K, Crystal 2 | 86.04
782.82 K, Crystal 2 | 86.02
783.82 K, Crystal 2 | 86.01
784.82 K, Crystal 2 | 86
785.82 K, Crystal 2 | 85.99
786.82 K, Crystal 2 | 85.98
787.82 K, Crystal 2 | 85.97
788.82 K, Crystal 2 | 85.96
789.82 K, Crystal 2 | 85.95
790.82 K, Crystal 2 | 85.95
791.82 K, Crystal 2 | 85.94
792.82 K, Crystal 2 | 85.93
793.82 K, Crystal 2 | 85.93
794.82 K, Crystal 2 | 85.92
795.82 K, Crystal 2 | 85.92
796.82 K, Crystal 2 | 85.91
797.82 K, Crystal 2 | 85.91
798.82 K, Crystal 2 | 85.91
799.82 K, Crystal 2 | 85.9
800.82 K, Crystal 2 | 85.91
801.82 K, Crystal 2 | 85.92
802.82 K, Crystal 2 | 85.93
803.82 K, Crystal 2 | 85.94
804.82 K, Crystal 2 | 85.95
805.82 K, Crystal 2 | 85.96
806.82 K, Crystal 2 | 85.97
807.82 K, Crystal 2 | 85.98
808.82 K, Crystal 2 | 85.99
809.82 K, Crystal 2 | 86
810.82 K, Crystal 2 | 86.01
811.82 K, Crystal 2 | 86.02
812.82 K, Crystal 2 | 86.03
813.82 K, Crystal 2 | 86.04
814.82 K, Crystal 2 | 86.05
815.82 K, Crystal 2 | 86.06
816.82 K, Crystal 2 | 86.07
817.82 K, Crystal 2 | 86.08
818.82 K, Crystal 2 | 86.09
819.82 K, Crystal 2 | 86.1
820.82 K, Crystal 2 | 86.11
821.82 K, Crystal 2 | 86.12
822.82 K, Crystal 2 | 86.13
823.82 K, Crystal 2 | 86.14
824.82 K, Crystal 2 | 86.15
825.82 K, Crystal 2 | 86.16
826.82 K, Crystal 2 | 86.17
827.82 K, Crystal 2 | 86.18
828.82 K, Crystal 2 | 86.19
829.82 K, Crystal 2 | 86.2
830.82 K, Crystal 2 | 86.21
831.82 K, Crystal 2 | 86.23
832.82 K, Crystal 2 | 86.24
833.82 K, Crystal 2 | 86.25
834.82 K, Crystal 2 | 86.26
835.82 K, Crystal 2 | 86.27
836.82 K, Crystal 2 | 86.28
837.82 K, Crystal 2 | 86.29
838.82 K, Crystal 2 | 86.3
839.82 K, Crystal 2 | 86.31
840.82 K, Crystal 2 | 86.32
841.82 K, Crystal 2 | 86.33
842.82 K, Crystal 2 | 86.34
843.82 K, Crystal 2 | 86.35
844.82 K, Crystal 2 | 86.36
845.82 K, Crystal 2 | 86.37
846.82 K, Crystal 2 | 86.38
847.82 K, Crystal 2 | 86.39
848.82 K, Crystal 2 | 86.4
849.82 K, Crystal 2 | 86.41
866.21 K, Crystal 1 | 90.42
867.21 K, Crystal 1 | 88.01
868.11 K, Crystal 1 | 89.24
869.11 K, Crystal 1 | 88.03
870.11 K, Crystal 1 | 87.13
871.11 K, Crystal 1 | 86.12
872.11 K, Crystal 1 | 85.33
873.11 K, Crystal 1 | 85.06
874.11 K, Crystal 1 | 84.83
875.11 K, Crystal 1 | 84.62
876.11 K, Crystal 1 | 84.44
877.11 K, Crystal 1 | 84.28
878.11 K, Crystal 1 | 84.13
879.11 K, Crystal 1 | 83.93
880.11 K, Crystal 1 | 83.85
881.11 K, Crystal 1 | 83.77
882.11 K, Crystal 1 | 83.69
883.11 K, Crystal 1 | 83.62
884.11 K, Crystal 1 | 83.55
885.11 K, Crystal 1 | 83.48
886.11 K, Crystal 1 | 83.41
887.11 K, Crystal 1 | 83.34
888.11 K, Crystal 1 | 83.28
889.11 K, Crystal 1 | 83.22
890.11 K, Crystal 1 | 83.17
891.11 K, Crystal 1 | 83.11
892.11 K, Crystal 1 | 83.06
893.11 K, Crystal 1 | 83.01
894.11 K, Crystal 1 | 82.97
895.11 K, Crystal 1 | 82.92
896.11 K, Crystal 1 | 82.88
897.11 K, Crystal 1 | 82.85
898.11 K, Crystal 1 | 82.81
899.11 K, Crystal 1 | 82.78
900.11 K, Crystal 1 | 82.75
901.11 K, Crystal 1 | 82.69
902.11 K, Crystal 1 | 82.64
903.11 K, Crystal 1 | 82.59
904.11 K, Crystal 1 | 82.54
905.11 K, Crystal 1 | 82.49
906.11 K, Crystal 1 | 82.45
907.11 K, Crystal 1 | 82.41
908.11 K, Crystal 1 | 82.37
909.11 K, Crystal 1 | 82.34
910.11 K, Crystal 1 | 82.3
911.11 K, Crystal 1 | 82.27
912.11 K, Crystal 1 | 82.25
913.11 K, Crystal 1 | 82.22
914.11 K, Crystal 1 | 82.2
915.11 K, Crystal 1 | 82.18
916.11 K, Crystal 1 | 82.16
917.11 K, Crystal 1 | 82.15
918.11 K, Crystal 1 | 82.14
919.11 K, Crystal 1 | 82.13
920.11 K, Crystal 1 | 82.13
921.11 K, Crystal 1 | 82.12
922.11 K, Crystal 1 | 82.12
923.11 K, Crystal 1 | 82.12
924.11 K, Crystal 1 | 82.13
925.11 K, Crystal 1 | 82.14
926.11 K, Crystal 1 | 82.15
927.11 K, Crystal 1 | 82.16
928.11 K, Crystal 1 | 82.18
929.11 K, Crystal 1 | 82.2
930.11 K, Crystal 1 | 82.22
931.11 K, Crystal 1 | 82.23
932.11 K, Crystal 1 | 82.25
933.11 K, Crystal 1 | 82.26
934.11 K, Crystal 1 | 82.27
935.11 K, Crystal 1 | 82.29
936.11 K, Crystal 1 | 82.3
937.11 K, Crystal 1 | 82.31
938.11 K, Crystal 1 | 82.32
